Experimental data taken from patent US20040224981A1, “Antibacterial methods and compositions” (priority 2003, published 2004).
In brackets after ≈: the same amount, converted by molar mass. Counter-ions that a name gives are not always drawn. Like-named read-outs stand apart in the source and are kept apart here.

Legend:
[1] = test system: S. aureus RN4220 (pYH4-MRS); test: Mode of action: MIC with MRS over-production; type: cell-based
Protocol: The strain expresses high levels of MRS upon the addition of 0.01 μg/mL of anyhdrotetracycline.

[2] = test system: S. aureus, coagulase-negative staphylococci and S. pyogenes strains; test: Serial passage, whole panel of 19 isolates; type: cell-based; conditions: after 20 passages; observed with five of the 19 organisms tested
Protocol: MRSi compound 5 (acetate salt), mupirocin and MRSi compound 5/mupirocin 1:1 combination were tested for development of resistance following serial passage using 19 isolates, including S. aureus, coagulase-negative staphylococci and S. pyogenes strains.

E. faecalis = test: MIC against E. faecalis; type: cell-based; conditions: Enterococcus faecalis, Table 8
Protocol: The MRS inhibitor 4 alone and in combination with mupirocin (mupirocin salt and 1:1 combination) were tested against a collection of Gram-positive pathogens.
(§1) MRSi compound 5 alone and in combination with mupirocin was tested recent clinical isolates of E. faecalis (n=28) and E. faecium (n=23). Both the acetate salt and mupirocinate salts of MRSi compound 5 maintained potent activity against vancomycin-susceptible and—resistant enterococci (Tables 8, 9, and 10).

E. faecium = test: MIC against E. faecium; type: cell-based; conditions: Enterococcus faecium, ATCC33667
Protocol: as §1

S. aureus = test: MIC against S. aureus strains and clinical isolates (broth microdilution); type: cell-based, Staphylococcus aureus
Protocol: were tested against a collection of clinical isolates of S. aureus including strains that were multi-resistant to mupirocin and to other agents such as gentamicin and oxacillin.
The acetate and mupirocin salts of the MRS inhibitor compound 5 were tested against a collection of both low and high-level mupirocin resistant clinical isolates of S. aureus (Table 6).
The bacterial strains were tested for susceptibility to mupirocin and MRSi compound 2 using the broth microdilution method in accordance with NCCLS guideline to determine their MICs.
Briefly, the MIC and checkerboard titration assays were performed with strains in microtiter trays with cation-supplemented Mueller-Hinton broth (Difco). Inocula were prepared by suspending growth from blood agar plates in sterile saline to a density equivalent to that of a 0.5 McFarland standard and were diluted […] to produce a final inoculum of 5×10^5 CFU/ml. The trays were incubated aerobically overnight. Standard quality control strains were included with each run. Fractional inhibitory concentrations (FICs) were calculated as the MIC of drug A or B in combination/MIC of drug A or B alone, and the FIC index was obtained by adding the two FICs. FIC indices were interpreted as synergistic if the values were ≦0.5, additive or indifferent if the values were >0.5 to 4, and antagonistic if the values were >4.0.

[3] = test system: S. aureus ATCC 29213 and 31-1334; test: Selection of spontaneous resistant mutants (mutation frequency); type: cell-based, Staphylococcus aureus
Protocol: Approximately, 10^9 bacteria were plated onto Mueller-Hinton agar supplemented with 10% horse blood and containing various concentrations of the test compounds alone and in combination. After 24 and 48 hours of incubation at 35° C., the bacterial colonies were counted and the frequencies of mutation were determined relative to the total viable count of organisms that were plated. Resistant clones were re-plated once on plates containing the same concentration of agent that was used for the selection.

[4] = S. aureus RN4220 (pYH4-MRS), +aTC (MRS over-expression)
[5] = ATCC 51299 / VRE, E. faecalis ATCC 51299 (VRE)

For CO[C@@H]1[C@@H](OC(N)=O)[C@@H](O)[C@H](Oc2ccc3c(O)c(NC(=O)c4ccc(O)c(CC=C(C)C)c4)c(=O)oc3c2C)OC1(C)C [Novobiocin], the MIC [1, 4] was 0.25 µg/mL (≈ 0.408 µM) and the MIC ([1]; Staphylococcus aureus) was 0.25 µg/mL (≈ 0.408 µM).
With C=C(F)c1sc(CNCCCNc2cc(=O)c3ccccc3[nH]2)c(C)c1Br [MRSi Cmpd 5, N-(4-bromo-5-(1-fluorovinyl)-3-methylthiophen-2-ylmethyl)-N′-(1H-quinolin-4-one)propane-1,3-diamine] the “MICs of the most resistant isolates that could be selected” value [2] was 16 µg/mL, the “increase in MIC on over-expression of MRS” value ([1]; +aTC vs −aTC, 0.01 μg/mL anhydrotetracycline) was 8 fold and the MIC [1, 4] was 1 µg/mL (≈ 2.22 µM). The MIC ([1]; S. aureus RN4220 (pYH4-MRS), −aTC (no anhydrotetracycline)) was 0.12 µg/mL (≈ 0.266 µM).
Work on CN[C@H](CC(C)C)C(=O)N[C@H]1C(=O)N[C@@H](CC(N)=O)C(=O)N[C@H]2C(=O)N[C@H]3C(=O)N[C@H](C(=O)N[C@H](C(=O)O)c4cc(O)cc(O)c4-c4cc3ccc4O)[C@H](O)c3ccc(c(Cl)c3)Oc3cc2cc(c3O[C@@H]2O[C@H](CO)[C@@H](O)[C@H](O)[C@H]2O[C@H]2C[C@](C)(N)[C@H](O)[C@H](C)O2)Oc2ccc(cc2Cl)[C@H]1O [Vancomycin, reference compound] yielded an MIC (E. faecalis; [5]) of 4 µg/mL, an MIC (E. faecalis; E. faecalis 1) of 0.12 µg/mL and an MIC (E. faecalis; E. faecalis 7) of 0.5 µg/mL. It also gave an MIC (E. faecium) of 0.5 µg/mL, an MIC [1, 4] of 0.5 µg/mL (≈ 0.345 µM) and an MIC ([1]; Staphylococcus aureus) of 0.5 µg/mL (≈ 0.345 µM).
With Brc1cc(Br)c2c(c1)C(NCCCNc1nc3ncccc3[nH]1)CCN2 (stereo not shown) [MRSi cmpd 2, N-(6,8-Dibromo-1,2,3,4-tetrahydroquinolin-4-yl)-N′-(1H-imidazo[4,5-b]pyridine-2-yl)-propane-1,3-diamine dihydrochloride] the MIC (S. aureus; Staphylococcus aureus, ATCC43300, S. aureus ATCC 43300 (ORSA), read-out: MIC) was 0.25 µg/mL, the MIC (S. aureus; Staphylococcus aureus, NRS 1 / VISA, S. aureus NRS1 (VISA)) was 0.25 µg/mL and the MIC (S. aureus; Staphylococcus aureus, NRS107, S. aureus NRS107 (HL Mup rest.), read-out: MIC) was 0.06 µg/mL. It also gave an MIC (S. aureus; Staphylococcus aureus, S. aureus 10-420 (LL Mup. Rest.), read-out: MIC) of 0.25 µg/mL, an MIC (S. aureus; Staphylococcus aureus, S. aureus 14-354 (LL Mup. Rest.), read-out: MIC) of 0.25 µg/mL and an MIC (S. aureus; Staphylococcus aureus, S. aureus 25-670 (HL Mup. Rest.), read-out: MIC) of 0.25 µg/mL. It also gave an MIC (S. aureus; Staphylococcus aureus, S. aureus 31-1334 (LL Mup Rest.), read-out: MIC) of 0.25 µg/mL, an MIC (S. aureus; Staphylococcus aureus, S. aureus 36-1298 (LL Mup. Rest.), read-out: MIC) of 0.06 µg/mL and an MIC (S. aureus; Staphylococcus aureus, S. aureus 87-2797 (HL Mup. Rest.), read-out: MIC) of 0.25 µg/mL. For the same compound, the MIC (S. aureus; Staphylococcus aureus, S. aureus 87-2797 (Mup. Susc.), read-out: MIC) was 0.25 µg/mL, the MIC (S. aureus; Staphylococcus aureus, S. aureus 101-100 (Mup. Susc.), read-out: MIC) was 0.12 µg/mL and the MIC (S. aureus; Staphylococcus aureus, S. aureus LZ1 (HL Mup rest.), read-out: MIC) was 0.12 µg/mL. The MIC (S. aureus; Staphylococcus aureus, S. aureus LZ6 (HL Mup rest.), read-out: MIC) was 0.25 µg/mL, the MIC (S. aureus; Staphylococcus aureus, S. aureus LZ8 (LL Mup. Rest.), read-out: MIC) was 0.25 µg/mL and the MIC (S. aureus; Staphylococcus aureus, S. aureus LZ9, read-out: MIC) was 0.25 µg/mL. The MIC (S. aureus; Staphylococcus aureus, S. aureus LZ10, read-out: MIC) was 0.25 µg/mL, the MIC (S. aureus; Staphylococcus aureus, S. aureus Miles Hall, read-out: MIC) was 0.12 µg/mL and the MIC (S. aureus; Staphylococcus aureus, S. aureus Oxford, read-out: MIC) was 0.12 µg/mL. The MIC90 (S. aureus; Staphylococcus aureus, all S. aureus strains of Table 1, read-out: MIC 90) was 0.25 µg/mL, the MIC (S. aureus; Table 12, S. aureus 25-670, high level mupirocin-resistant, agent alone) was 0.5 8 g/mL and the “MIC Range” value (S. aureus; all S. aureus strains of Table 1 (mupirocin-susceptible and -resistant)) was 0.06 to 0.25 µg/mL. The MIC (E. faecalis; [5]) was 0.03 µg/mL, the MIC (E. faecalis; E. faecalis 1) was 0.015 µg/mL and the MIC (E. faecalis; E. faecalis 7) was 0.06 µg/mL. The MIC (E. faecium) was ≤ 0.004 µg/mL, the “Mutation Frequency (48 hours)” value ([3]; S. aureus 31-1334 (low level mupirocin-resistant), selecting concentration 2 x MIC) was 3.3 × 10^−7 and the “Mutation Frequency (48 hours)” value ([3]; S. aureus 31-1334 (low level mupirocin-resistant), selecting concentration 4 x MIC) was 6.8 × 10^−8. For the same compound, the “Mutation Frequency (48 hours)” value ([3]; S. aureus 31-1334 (low level mupirocin-resistant), selecting concentration 8 x MIC) was 1.9 × 10^−8, the “Mutation Frequency (48 hours)” value ([3]; S. aureus ATCC 29213 (mupirocin susceptible), selecting concentration 2 x MIC) was 1.01 × 10^−7 and the “Mutation Frequency (48 hours)” value ([3]; S. aureus ATCC 29213 (mupirocin susceptible), selecting concentration 4 x MIC) was 3.14 × 10^−8. For the same compound, the “Mutation Frequency (48 hours)” value ([3]; S. aureus ATCC 29213 (mupirocin susceptible), selecting concentration 8 x MIC) was 2.07 × 10^−8.
